Details: compared with sodium dodecyl sulfate (SDS)

sodium lauroyl sarcosinate [SLS]
solubility in the compositions: detergent to be substantially more soluble in our
